In patent US20240139333A1, “2,6-DICHLOROPHENYL ESTER COMPOUNDS AND USE THEREOF” (Fusion Pharmaceuticals Inc., priority 2021, published 2024):

Tests used:
[1] = Competitive reactivity study between L-Lysine and HOPO nucleophile; conditions: L-Lysine 5 eq. / 1,2-HOPO 1 eq.
Description: (§1) General Experimental Protocol for Competitive Reactivity Study with L-Lysine and HOPO or HOA Nucleophiles
(§2) To a 4 mL scintillation vial containing Compound A (1 eq.) was added a stir bar followed by 70 μL of HPLC grade acetonitrile followed by a respective HOPO or HOA nucleophile (1 eq). In another 4 mL scintillation vial containing L-Lysine monohydrochloride (5 eq.) was added 130 μL HPLC grade water followed by diisopropylethylamine (5 eq.). The solutions were combined and allowed to stir at room temperature (22±2° C.) for 4 hours. Timed aliquots at time (T)=15, 30, 60, 120 and 240 minutes were taken and analyzed by HPLC-MS using elution method 1 (Table 7)

[2] = Competitive reactivity study between L-Lysine and HOA nucleophile; conditions: L-Lysine 5 eq. / N-Hydroxy-N-methyl benzamide 1 eq
Description: as §1, §2

pH stability study = assay type: physicochemical; conditions: 20° C.
Description: To a 4 mL scintillation vial containing Compound A-E (in respective experiments; 0.8 mg) was added 4 mL of either a pH 3, pH 5 pH 7 or pH 9 buffer to create a 0.2 mg/mL solution. 2 mL of this solution was added to a 2 mL HPLC vial and placed in the auto sampler of an HPLC-MS at 20° C. Timed aliquots at time (T)=15, 30, 60, 120, 240 and 480 minutes were taken and analyzed by HPLC-MS using elution method 1 (Table 3). […]
pH 3 Buffer: Citric acid/Na2HPO4 (79.45 mL 0.1 M-citric acid and 20.55 mL 0.2-Na2HPO4) pH 5 Buffer: Citric acid/Na2HPO4 (48.50 mL 0.1 M-citric acid and 51.50 mL 0.2-Na2HPO4) pH 7 Buffer: Citric acid/Na2HPO4 (17.65 mL 0.1 M-citric acid and 82.35 mL 0.2-Na2HPO4) pH 9 Buffer: Sodium Carbonate/Sodium Bicarbonate (10 mL 0.1 M-Na2CO3 and 90 mL 0.1-NaHCO3)

[3] = Active ester reactivity study with amino acids (Z-Arg-OH); conditions: Z-Arg-OH 1 eq., 22±2° C.
Description: General Experimental Protocol for Nucleophilic Reactivity Study with Amino Acids
To a 4 mL scintillation vial containing Compound A or C (1 eq.) was added a stir bar followed by 70 μL of HPLC grade acetonitrile. In another 4 mL scintillation vial containing a respective amino acid (1-5 eq.) was added 130 μL HPLC grade water followed by diisopropylethylamine (5 eq.). The solutions were combined and allowed to stir at room temperature (22±2° C.) for 4 hours. Timed aliquots at time (T)=15, 30, 60, 120 and 240 minutes were taken and analyzed by HPLC-MS using elution method 1 (Table 6).

[4] = Comparative active ester reactivity study with HOPO nucleophile; conditions: 1,2-HOPO 1 eq., 22±2° C.
Description: General Experimental Protocol for Comparative Active Ester Reactivity Study with HOPO or HOA Nucleophiles
To a 4 mL scintillation vial containing Compound A-E (in respective experiments; 1 eq.) was added a stir bar followed by 150 μL of HPLC grade acetonitrile. In another 4 mL scintillation vial containing a respective nucleophile (1 eq.) was added 280 μL HPLC grade water. The solutions were combined and allowed to stir at room temperature (22±2° C.) for 4 hours. Timed aliquots at time (T)=15, 30, 60, 120 and 240 minutes were taken and analyzed by HPLC-MS using elution method 1 (Table 1).

**Q.** Which results are given for `O=C(CCc1cccnc1)Oc1c(Cl)cccc1Cl` [Compound A, 2,6-Dichlorophenyl-3-(pyridin-3-yl)propanoate]?
**A.** % Compound A Remaining ([1]; 15 min): (88.33) %; % Compound A Remaining ([1]; 30 min): (74.52) %; % Compound A Remaining ([1]; 60 min): (28.29) %; % Compound A Remaining ([1]; 120 min): (2.01) %; % Compound A Remaining ([1]; 240 min): (0) %; % Compound A Remaining ([2]; 15 min): (65.77) %; % Compound A Remaining ([2]; 30 min): (14.83) %; % Compound A Remaining ([2]; 60 min): (1.63) %; % Compound A Remaining ([2]; 120 min): (0) %; % Remaining (pH stability study; pH 3 buffer, 15 min): 100%; % Remaining (pH stability study; pH 3 buffer, 30 min): 100%; % Remaining (pH stability study; pH 3 buffer, 60 min): 100%; % Remaining (pH stability study; pH 3 buffer, 120 min): 100%; % Remaining (pH stability study; pH 3 buffer, 240 min): 100%; % Remaining (pH stability study; pH 3 buffer, 480 min): 100%; % Remaining (pH stability study; pH 5 buffer, 15 min): 100%; % Remaining (pH stability study; pH 5 buffer, 30 min): 100%; % Remaining (pH stability study; pH 5 buffer, 60 min): 100%; % Remaining (pH stability study; pH 5 buffer, 120 min): 100%; % Remaining (pH stability study; pH 5 buffer, 240 min): 100%; % Remaining (pH stability study; pH 5 buffer, 480 min): 100%; % Remaining (pH stability study; pH 7 buffer, 15 min): 100%; % Remaining (pH stability study; pH 7 buffer, 30 min): 100%; % Remaining (pH stability study; pH 7 buffer, 60 min): 100%; % Remaining (pH stability study; pH 7 buffer, 120 min): 99.35%; % Remaining (pH stability study; pH 7 buffer, 240 min): 98.75%; % Remaining (pH stability study; pH 7 buffer, 480 min): 97.82%; % Remaining (pH stability study; pH 9 buffer, 15 min): 98.15%; % Remaining (pH stability study; pH 9 buffer, 30 min): 95.27%; % Remaining (pH stability study; pH 9 buffer, 60 min): 92.61%; % Remaining (pH stability study; pH 9 buffer, 120 min): 87.81%; % Remaining (pH stability study; pH 9 buffer, 240 min): 79.28%; % Remaining (pH stability study; pH 9 buffer, 480 min): 61.56%; % Active Ester Remaining ([3]; 15 min): 94.23%; % Active Ester Remaining ([3]; 30 min): 90.34%; % Active Ester Remaining ([3]; 60 min): 86.74%; % Active Ester Remaining ([3]; 120 min): 78.45%; % Active Ester Remaining ([3]; 240 min): 73.31%; % Active Ester Remaining ([4]; 15 min): 99.32%; % Active Ester Remaining ([4]; 30 min): 98.56%; % Active Ester Remaining ([4]; 60 min): 96.90%; % Active Ester Remaining ([4]; 120 min): 95.51%; % Active Ester Remaining ([4]; 240 min): 93.74%

**Q.** With `O=C(CCc1cccnc1)Oc1c(F)c(F)cc(F)c1F` [Compound C, 2,3,5,6-Tetrafluorophenyl-3-(pyridin-3-yl)propanoate] as the compound, how does the “% Remaining” value (pH stability study; pH 3 buffer, 15 min) read?
**A.** 98.19%

**Q.** What about the “% Remaining” value (pH stability study; pH 3 buffer, 30 min) of the same compound?
**A.** 93.92%

**Q.** And the “% Remaining” value (pH stability study; pH 3 buffer, 60 min)?
**A.** 89.61%

**Q.** And the “% Remaining” value (pH stability study; pH 3 buffer, 120 min)?
**A.** 82.13%

**Q.** And the “% Remaining” value (pH stability study; pH 3 buffer, 240 min)?
**A.** 68.98%

**Q.** And the “% Remaining” value (pH stability study; pH 3 buffer, 480 min)?
**A.** 48.46%

**Q.** And the “% Remaining” value (pH stability study; pH 5 buffer, 15 min)?
**A.** 96.06%

**Q.** What about the “% Remaining” value (pH stability study; pH 5 buffer, 30 min) of the same compound?
**A.** 86.91%

**Q.** And the “% Remaining” value (pH stability study; pH 5 buffer, 60 min)?
**A.** 79.07%

**Q.** What about the “% Remaining” value (pH stability study; pH 5 buffer, 120 min) of the same compound?
**A.** 65.20%

**Q.** And the “% Remaining” value (pH stability study; pH 5 buffer, 240 min)?
**A.** 45.26%

**Q.** And the “% Remaining” value (pH stability study; pH 5 buffer, 480 min)?
**A.** 20.20%

**Q.** What about the “% Remaining” value (pH stability study; pH 7 buffer, 15 min) of the same compound?
**A.** 94.61%

**Q.** What about the “% Remaining” value (pH stability study; pH 7 buffer, 30 min) of the same compound?
**A.** 83.82%

**Q.** And the “% Remaining” value (pH stability study; pH 7 buffer, 60 min)?
**A.** 73.25%

**Q.** What about the “% Remaining” value (pH stability study; pH 7 buffer, 120 min) of the same compound?
**A.** 54.53%

**Q.** And the “% Remaining” value (pH stability study; pH 7 buffer, 240 min)?
**A.** 27.99%

**Q.** And the “% Remaining” value (pH stability study; pH 7 buffer, 480 min)?
**A.** 5.60%

**Q.** And the “% Remaining” value (pH stability study; pH 9 buffer, 15 min)?
**A.** 7.60%

**Q.** What about the “% Remaining” value (pH stability study; pH 9 buffer, 30 min) of the same compound?
**A.** 1.71%

**Q.** And the “% Remaining” value (pH stability study; pH 9 buffer, 60 min)?
**A.** 0.49%

**Q.** And the “% Remaining” value (pH stability study; pH 9 buffer, 120 min)?
**A.** 0%

**Q.** What about the “% Active Ester Remaining” value ([3]; 15 min) of the same compound?
**A.** 22.34%

**Q.** What about the “% Active Ester Remaining” value ([3]; 30 min) of the same compound?
**A.** 3.47%

**Q.** And the “% Active Ester Remaining” value ([3]; 60 min)?
**A.** 0.36%

**Q.** And the “% Active Ester Remaining” value ([3]; 120 min)?
**A.** 0%

**Q.** What about the “% Active Ester Remaining” value ([4]; 15 min) of the same compound?
**A.** 40.02%

**Q.** What about the “% Active Ester Remaining” value ([4]; 30 min) of the same compound?
**A.** 17.81%

**Q.** What about the “% Active Ester Remaining” value ([4]; 60 min) of the same compound?
**A.** 9.78%

**Q.** What about the “% Active Ester Remaining” value ([4]; 120 min) of the same compound?
**A.** 5.19%

**Q.** What about the “% Active Ester Remaining” value ([4]; 240 min) of the same compound?
**A.** 0.94%
